pKi: −log10 of the molar value. Read-outs that look alike come from different tables or passages of the source.
Key:
[1] = target: T1, Recombinant human NK3 (hNK3) receptor (Homo sapiens, UniProt P29371); test: NK3 receptor binding, [3H]SR142801 displacement, membrane preparations; conditions: for pKi: second value of the cell pKi NK1/NK3, hNK3 receptor, [3H]SR142801; for Ki: second value of the cell NK1/NK3, read-out: pKi NK3 (converted)
T1 construct: expressed in transfected cells
T1 sequence (P29371 1-465): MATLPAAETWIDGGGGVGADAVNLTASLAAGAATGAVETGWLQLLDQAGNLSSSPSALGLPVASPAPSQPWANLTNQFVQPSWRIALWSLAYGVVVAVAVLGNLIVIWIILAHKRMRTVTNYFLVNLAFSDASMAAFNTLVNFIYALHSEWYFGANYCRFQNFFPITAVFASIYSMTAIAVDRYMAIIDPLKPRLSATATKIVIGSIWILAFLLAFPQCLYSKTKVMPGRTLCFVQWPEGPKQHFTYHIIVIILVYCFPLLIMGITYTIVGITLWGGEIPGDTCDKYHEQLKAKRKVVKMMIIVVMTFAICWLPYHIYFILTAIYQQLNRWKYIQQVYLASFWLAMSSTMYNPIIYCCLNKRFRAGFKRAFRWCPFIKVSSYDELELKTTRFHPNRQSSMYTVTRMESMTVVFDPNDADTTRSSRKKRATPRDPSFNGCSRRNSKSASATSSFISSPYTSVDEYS
Summary of the method: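 Room-temperature, 90-min filtration binding assay using about 2.5 μg recombinant receptor membranes per well; separation on polyethyleneimine-treated glass-fibre (GF/C) filters and liquid scintillation read-out, with 10 μM SB222200 for nonspecific binding.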

human NK1 receptor = human NK1 receptor (Homo sapiens, UniProt P25103); test: NK1 receptor binding, [3H]substance P displacement, CHO cell membranes; conditions: for pKi: first value of the cell pKi NK1/NK3, human NK1 receptor, [3H]substance P; for Ki: first value of the cell NK1/NK3, read-out: pKi NK1 (converted)
Chain of human NK1 receptor (P25103 whole entry): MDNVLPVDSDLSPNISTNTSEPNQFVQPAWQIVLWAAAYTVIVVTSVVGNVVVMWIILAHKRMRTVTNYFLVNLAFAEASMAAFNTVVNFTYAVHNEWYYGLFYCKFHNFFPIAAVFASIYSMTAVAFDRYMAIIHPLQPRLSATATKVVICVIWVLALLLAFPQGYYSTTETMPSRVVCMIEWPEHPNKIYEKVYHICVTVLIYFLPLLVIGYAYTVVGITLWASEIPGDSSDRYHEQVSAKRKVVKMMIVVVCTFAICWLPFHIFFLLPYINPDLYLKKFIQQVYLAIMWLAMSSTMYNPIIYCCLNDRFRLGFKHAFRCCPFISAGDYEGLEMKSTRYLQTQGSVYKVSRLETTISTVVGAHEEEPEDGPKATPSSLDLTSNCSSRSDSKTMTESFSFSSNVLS

Row | SMILES | pKi [1] | pKi (human NK1 receptor) | Ki [1] | Ki (human NK1 receptor)
1 | Cc1cc(F)ccc1-c1cc(N2C[C@H](O)C[C@H]2CO)ncc1N(C)C(=O)C(C)(C)c1cccc(C(F)(F)F)c1 [Example 27, (2S,4R)-N-[4-(4-Fluoro-2-methyl-phenyl)-6-(4-hydroxy-2-hydroxymethyl-pyrrolidin-1-yl)-pyridin-3-yl]-N-methyl-2-(3-trifluoromethyl-phenyl)-isobutyramide] | 7.97 | 8.82 | – | –
2 | COc1cc(Cl)cc(C(C)(C)C(=O)N(C)c2cnc(N3C[C@H](O)C[C@H]3CO)cc2-c2ccc(F)cc2C)c1 [Example 31, (2S,4R)-2-(3-Chloro-5-methoxy-phenyl)-N-[4-(4-fluoro-2-methyl-phenyl)-6-(4-hydroxy-2-hydroxymethyl-pyrrolidin-1-yl)-pyridin-3-yl]-N-methyl-isobutyramide] | 8.78 | 9.01 | – | –
3 | CN(C(=O)C(C)(C)c1cc(C(F)(F)F)cc(C(F)(F)F)c1)c1cnc(N2CCC[C@H]2CO)cc1-c1ccc(Cl)c(Cl)c1 [Example 286, (S)-2-(3,5-Bis-trifluoromethyl-phenyl)-N-[4-(3,4-dichloro-phenyl)-6-(2-hydroxymethyl-pyrrolidin-1-yl)-pyridin-3-yl]-N-methyl-isobutyramide] | – | – | 3.72 nM | 1.35 nM
4 | CN(C(=O)C(C)(C)c1cc(C(F)(F)F)cc(C(F)(F)F)c1)c1cnc(N2CCC[C@H]2CO)cc1-c1ccccc1 [Example 289, (S)-2-(3,5-Bis-trifluoromethyl-phenyl)-N-[6-(2-hydroxymethyl-pyrrolidin-1-yl)-4-phenyl-pyridin-3-yl]-N-methyl-isobutyramide] | – | – | 5.01 nM | 3.02 nM
5 | CC(=O)N[C@H]1CCN(c2cc(-c3ccccc3Br)c(N(C)C(=O)C(C)(C)c3cc(C(F)(F)F)cc(C(F)(F)F)c3)cn2)C1 [Example 133, (S)-N-[6-(3-Acetylamino-pyrrolidin-1-yl)-4-(2-bromo-phenyl)-pyridin-3-yl]-2-(3,5-bis-trifluoromethyl-phenyl)-N-methyl-isobutyramide] | 8.70 | 9.10 | – | –
6 | CN(C(=O)C(C)(C)c1cc(C(F)(F)F)cc(C(F)(F)F)c1)c1cnc(N2CC[C@H](O)[C@@H](CO)C2)cc1-c1ccccc1Cl (racemic) [Example 193, (3RS,4SR)-2-(3,5-Bis-trifluoromethyl-phenyl)-N-[4′-(2-chloro-phenyl)-4-hydroxy-3-hydroxymethyl-3,4,5,6-tetrahydro-2H-[1,2′]bipyridinyl-5′-yl]-N-methyl-isobutyramide] | 7.92 | 8.84 | – | –
7 | Cc1ccccc1-c1cc(N2CC[C@H](O)C[C@@H]2CO)ncc1N(C)C(=O)C(C)(C)c1cc(C(F)(F)F)cc(C(F)(F)F)c1 (racemic) [Example 190, (2RS,4SR)-2-(3,5-Bis-trifluoromethyl-phenyl)-N-(4-hydroxy-2-hydroxymethyl-4′-o-tolyl-3,4,5,6-tetrahydro-2H-[1,2′]bipyridinyl-5′-yl)-N-methyl-isobutyramide] | 8.39 | 8.80 | – | –
8 | CN(C(=O)C(C)(C)c1cc(C(F)(F)F)cc(C(F)(F)F)c1)c1cnc(N2CC[C@@H](O)C2)cc1-c1ccccc1Cl [Example 47, (R)-2-(3,5-Bis-trifluoromethyl-phenyl)-N-[4-(2-chloro-phenyl)-6-(3-hydroxy-pyrrolidin-1-yl)-pyridin-3-yl]-N-methyl-isobutyramide] | 8.20 | 8.71 | – | –
9 | Cc1cc(F)ccc1-c1cc(N(CCO)CCCO)ncc1N(C)C(=O)C(C)(C)c1cc(C(F)(F)F)cc(C(F)(F)F)c1 [Example 85, 2-(3,5-Bis-trifluoromethyl-phenyl)-N-{4-(4-fluoro-2-methyl-phenyl)-6-[(2-hydroxy-ethyl)-(3-hydroxy-propyl)-amino]-pyridin-3-yl}-N-methyl-isobutyramide] | 8.64 | 8.63 | – | –
10 | Cc1ccc(F)cc1-c1cc(N2CC[C@H](O)[C@H]2CO)ncc1N(C)C(=O)C(C)(C)c1cc(C(F)(F)F)cc(C(F)(F)F)c1 [Example 276, (2R,3S)-2-(3,5-Bis-trifluoromethyl-phenyl)-N-[4-(5-fluoro-2-methyl-phenyl)-6-(3-hydroxy-2-hydroxymethyl-pyrrolidin-1-yl)-pyridin-3-yl]-N-methyl-isobutyramide] | – | – | 1.38 nM | 1.45 nM

Other lines, results leading:

Row | pKi [1] | pKi (human NK1 receptor) | Ki [1] | Ki (human NK1 receptor) | SMILES
11 | 8.84 | 8.79 | – | – | CN(C(=O)C(C)(C)c1cc(C(F)(F)F)cc(C(F)(F)F)c1)c1cnc(N2C[C@H](O)C[C@H]2CO)cc1-c1ccc(Cl)cc1Cl [Example 136, (2S,4R)-2-(3,5-Bis-trifluoromethyl-phenyl)-N-[4-(2,4-dichloro-phenyl)-6-(4-hydroxy-2-hydroxymethyl-pyrrolidin-1-yl)-pyridin-3-yl]-N-methyl-isobutyramide]
12 | – | – | 17.8 nM | 1.41 nM | Cc1ccccc1-c1cc(N2C[C@@H](O)C[C@@H]2CO)ncc1N(C)C(=O)C(C)(C)c1cc(C(F)(F)F)cc(C(F)(F)F)c1 [Example 260, (2R,4S)-2-(3,5-Bis-trifluoromethyl-phenyl)-N-[6-(4-hydroxy-2-hydroxymethyl-pyrrolidin-1-yl)-4-o-tolyl-pyridin-3-yl]-N-methyl-isobutyramide]
13 | – | – | 5.25 nM | 0.933 nM | CN(C(=O)C(C)(C)c1cc(C(F)(F)F)cc(C(F)(F)F)c1)c1cnc(N2C[C@H](O)C[C@H]2CO)cc1-c1ccc(F)cc1Cl [Example 221, (2S,4R)-2-(3,5-Bis-trifluoromethyl-phenyl)-N-[4-(2-chloro-4-fluoro-phenyl)-6-(4-hydroxy-2-hydroxymethyl-pyrrolidin-1-yl)-pyridin-3-yl]-N-methyl-isobutyramide]
14 | 8.99 | 9.19 | – | – | CC(=O)N[C@H]1C[C@@H](CO)N(c2cc(-c3ccccc3Cl)c(N(C)C(=O)C(C)(C)c3cc(C(F)(F)F)cc(C(F)(F)F)c3)cn2)C1 [Example 40, (2S,4S)-N-[6-(4-Acetylamino-2-hydroxymethyl-pyrrolidin-1-yl)-4-(2-chloro-phenyl)-pyridin-3-yl]-2-(3,5-bis-trifluoromethyl-phenyl)-N-methyl-isobutyramide]
15 | – | – | 1.38 nM | 3.02 nM | CN(C(=O)C(C)(C)c1cc(C(F)(F)F)cc(C(F)(F)F)c1)c1cnc(N2CC[C@H](O)[C@H]2CO)cc1-c1cccc(Cl)c1Cl [Example 271, (2R,3S)-2-(3,5-Bis-trifluoromethyl-phenyl)-N-[4-(2,3-dichloro-phenyl)-6-(3-hydroxy-2-hydroxymethyl-pyrrolidin-1-yl)-pyridin-3-yl]-N-methyl-isobutyramide]
16 | – | – | 1.35 nM | 0.575 nM | CN(C(=O)C(C)(C)c1cc(C(F)(F)F)cc(C(F)(F)F)c1)c1cnc(N2C[C@H](O)C[C@H]2CO)cc1-c1cccnc1Cl [Example 232, (2S,4R)-2-(3,5-Bis-trifluoromethyl-phenyl)-N-[2-chloro-6′-(4-hydroxy-2-hydroxymethyl-pyrrolidin-1-yl)-[3,4′]bipyridinyl-3′-yl]-N-methyl-isobutyramide]
17 | 7.80 | 8.73 | – | – | CN(C(=O)C(C)(C)c1cc(C(F)(F)F)cc(C(F)(F)F)c1)c1cnc(N2C[C@H](O)C[C@H]2CO)cc1-c1cccc(Cl)c1 [Example 206, (2S,4R)-2-(3,5-Bis-trifluoromethyl-phenyl)-N-[4-(3-chloro-phenyl)-6-(4-hydroxy-2-hydroxymethyl-pyrrolidin-1-yl)-pyridin-3-yl]-N-methyl-isobutyramide]
